Experimental data taken from patent US10118922B2 (Janssen Pharmaceutica NV, priority 2013, dated 2018).

Key:
[1] = molecular target: T1, long form of human GPR120 (Homo sapiens, UniProt Q5NUL3); experiment: Human GPR120 DiscoveRx PathHunter beta-arrestin assay, Procedure β-arrestin A; assay type: cell-based; conditions: PathHunter CHO-K1 GPR120 β-Arrestin cells, 3000 cells per well; read-out: hGPR120 β-arrestin A EC50
T1 construct: host or cells: PathHunter CHO-K1 GPR120 β-Arrestin Cell Line
T1 sequence (Q5NUL3 1-377 isoform Q5NUL3-1): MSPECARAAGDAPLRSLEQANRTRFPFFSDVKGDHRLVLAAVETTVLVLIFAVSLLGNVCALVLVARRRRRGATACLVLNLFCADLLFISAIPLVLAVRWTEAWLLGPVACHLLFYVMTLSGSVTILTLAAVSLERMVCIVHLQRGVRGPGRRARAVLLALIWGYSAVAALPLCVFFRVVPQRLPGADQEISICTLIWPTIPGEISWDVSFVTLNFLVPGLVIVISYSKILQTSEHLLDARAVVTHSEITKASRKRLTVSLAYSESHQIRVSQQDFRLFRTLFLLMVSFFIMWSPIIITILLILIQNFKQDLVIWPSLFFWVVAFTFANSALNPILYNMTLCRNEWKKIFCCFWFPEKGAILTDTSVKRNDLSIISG
Description: The binding of an agonist (medium/long chain fatty acids or small molecule agonists) to the G-protein-coupled receptor GPR120 activates phospholipase C, leading to release of intracellular Ca^+2 through the generation of inositol 1,4,5-trisphosphate (InsP3 or IP3). GPR120 activation can also trigger intracellular signaling via recruitment of Beta-Arrestin. In the present method, agonist-induced activation of the human GPR120 receptor is monitored through the use of PathHunter CHO-K1 GPR120 Beta-Arrestin Cell Line engineered by DiscoveRx, as detailed below. The cell lines are designed to co-express both the ProLink/Enzyme Donor (PK)-tagged GPCR and the Enzyme […] (EA)-tagged Beta-Arrestin fusion proteins. Upon GPR120 receptor stimulation/activation, the EA-tagged Beta-Arrestin portion is translocated to the tagged receptor, where the two enzyme fragments are brought within close proximity. Under these conditions, these fragments can interact and form an active Beta-gal enzyme complex through Enzyme Fragment Complementation (EFC). […] This in vitro assay therefore serves to assess compound agonist activity of the GPR120.
In Procedure β-arrestin A, the cell used were PathHunter CHO-K1 GPR120 β-Arrestin Cell Line, expressing the long form of human GPR120 (Genbank accession number NM_181745), with 3000 cells per well.
The selected CHO-K1 GPR120 β-Arrestin cells were cultured in Ham's F12 media supplemented with 10% fetal bovine serum (FBS), 1% Glutamine, 1×p/s, 800 μg/mL G418 and 300 μg/mL Hygromycin B (for selection). Cell stocks were maintained and grown in a sub-confluent state using standard cell culture procedures. The day before the experiment, the cells were harvested with non-enzymatic cell dissociation buffer and re-suspended in complete growth media at the desired concentration. […] The seeded plates were incubated overnight at 37° C.
On the day of the experiment, the Assay Buffer containing (a) HBSS with Ca^++ and Mg^++, (b) 20 mM HEPES, and (c) 0.1% BSA stabilizer (pH 7.4) was prepared. The growth medium was gently removed from the cell plates and 20 μL of Assay Buffer added to each well. The plate was then incubated at 37° C. for 60 min. […] Five μL of compound dilution was then added to each well and the plate incubated at 37° C. for 90 min. The detection reagents were prepared according to the manufacture's instruction. Twelve μL of the detection reagents were added to each well and the plate incubated at room temperature for 60 min.
The % activity relative to the positive control was calculated using the following equation:
The Fitting Equation was: Y=Bottom+(Top-Bottom)/(1+10^((Log EC50−X)*HillSlope)), where X is the log of the concentration and Y is the response.

[2] = molecular target: T2, Human GPR120 short form (Homo sapiens, UniProt Q5NUL3); experiment: Human GPR120 calcium flux assay, Procedure Calcium A; assay type: cell-based; conditions: HEK-293 cells, FLIPR, 2500 cells/well; read-out: GPR120 Ca2+ Assay A EC50
T2 construct: expressed in transfected cells
T2 sequence (Q5NUL3 1-361): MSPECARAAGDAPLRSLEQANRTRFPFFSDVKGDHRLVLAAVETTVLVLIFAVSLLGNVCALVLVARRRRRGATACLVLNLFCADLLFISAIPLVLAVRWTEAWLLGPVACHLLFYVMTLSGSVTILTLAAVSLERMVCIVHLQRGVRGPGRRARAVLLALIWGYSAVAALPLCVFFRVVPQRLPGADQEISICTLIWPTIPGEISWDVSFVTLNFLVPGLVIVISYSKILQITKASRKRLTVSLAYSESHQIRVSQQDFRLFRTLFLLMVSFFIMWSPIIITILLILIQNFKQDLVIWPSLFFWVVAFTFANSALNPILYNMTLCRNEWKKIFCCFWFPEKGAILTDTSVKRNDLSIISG
Experimental: These cells are first loaded with the Ca^+2 sensitive dye, Fluo-4 NR. Upon stimulation, intracellular released Ca^+2 can bind to the dye and alter its fluorescence intensity. This increase in fluorescence signal, and thus the flux in intracellular [Ca^2+], is detected and quantitated by fluorescence imaging using a FLIPR reader. The effect of the agonist is measured as a function of concentration and used to calculate an EC50 based upon a response curve.
In this procedure 2500 cells/well were employed.
A Human GPR120 clone (Genbank accession number NM_001195755.1) was placed into the pcDNA3.1 mammalian expression vector carrying the neomycin resistance gene. A stable mammalian cell was generated by placing the above clone into a HEK293 background. […] Cells were split 2 times a week to keep the cells in the log-phase growth.
In preparation for the assay, HEK cells stably transfected with Human GPR120 (2.5K cells per well in 25 uL growth medium) were seeded into 384-well plates and then incubated overnight (37° C., 5% CO2). The next day, the media was changed to 20 μL assay buffer and the cell starved for 1 h at 37° C. The dye loading solution (2× dye) was prepared using 10 mL assay buffer, 100 μL of 250 mM probenecid, 1 bottle of Component A, and 20 μl of dye in DMSO. Twenty μL of the 2× dye loading buffer was then added to each well. The plates were incubated at 37° C. for 30 min, then at room temperature for an additional 15 minutes, before performing the assay on FLIPR.
The assay was performed on a FLIPR plate reader using the following parameters. Baseline was read for 10 seconds at 1 sec intervals. The program was set to transfer 10 μL of ligand from compound plate to cell plate after baseline reading. Aspiration was executed at: 10 μL/sec speed, 4.6 μL height; Dispensing was executed at: 30 μL/sec speed, 45 μL height. After compound addition, each well was read for 300 sec, with measurements collected at 1 sec intervals.
The kinetic data from the FLIPR was based upon a 5 minute window for data collection. The fluorescence of each sample well was used for individual calculations of a normalized RFU value, which was defined as maximum response minus the minimum response. […] The Fitting Equation was: Y=Bottom+(Top-Bottom)/(1+10^((Log EC50−X)*HillSlope)), where X is the log of the concentration and Y is the response.

Compound	EC50 [1]	EC50 [2]
OCCCc1cc(F)c(OCc2c(Cl)nsc2-c2ccc(Cl)cc2)c(F)c1 [Cpd 78, 3-(4-{[3-Chloro-5-(4-chlorophenyl)isothiazol-4-yl]methoxy}-3,5-difluorophenyl)propan-1-ol]	0.028 µM	0.05 µM
O=C(O)CCc1cc(F)c(OCc2sc(Cl)cc2-c2ccc(Cl)cc2)c(F)c1 [Cpd 2, 3-(4-{[5-Chloro-3-(4-chlorophenyl)thiophen-2-yl]methoxy}-3,5-difluorophenyl)propanoic acid]	0.097 µM	0.03 µM
Cc1sc(-c2ccccc2)c(COc2ccc(CCC(=O)O)c(C)c2C)c1C(F)(F)F [Cpd 33, 3-(2,3-Dimethyl-4-{[5-methyl-2-phenyl-4-(trifluoromethyl)thiophen-3-yl]methoxy}phenyl)propanoic acid]	0.431 µM	0.05 µM
